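A five-concentration, 48-hour dose response in 96-well plates underlies each endpoint, interpolated linearly between surrounding concentrations. At the GI50, growth is halved.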 Active and inactive are the calls of the source. Cut-off read from the data, not from the text of the source: active = GI50 up to about 1.1 µM and inactive = higher.
Key:
Assay in all cases: growth of human tumour cells (NCI), 48 h
Hs-578T = system: Hs-578T
U-251 = system: U-251
LOX IMVI = system: LOX IMVI
OVCAR-3 = system: OVCAR-3
EKVX = system: EKVX
A498 = system: A498
CAKI-1 = system: CAKI-1
RPMI-8226 = system: RPMI-8226
PC-3 = system: PC-3
MDA-MB-231 = system: MDA-MB-231
SK-MEL-5 = system: SK-MEL-5
HT-29 = system: HT-29
SN12C = system: SN12C
SK-MEL-28 = system: SK-MEL-28
SF-295 = system: SF-295
HCT-15 = system: HCT-15
SF-268 = system: SF-268
HCC 2998 = system: HCC 2998
ACHN = system: ACHN
MDA-MB-435 = system: MDA-MB-435
HOP-62 = system: HOP-62
OVCAR-8 = system: OVCAR-8
SK-OV-3 = system: SK-OV-3
HL-60 = system: HL-60
HCT-116 = system: HCT-116
IGROV-1 = system: IGROV-1
786-0 = system: 786-0
SR = system: SR
SW-620 = system: SW-620
HOP-92 = system: HOP-92
KM12 = system: KM12
NCI/ADR-RES = system: NCI/ADR-RES
T47D = system: T47D
OVCAR-5 = system: OVCAR-5
TK-10 = system: TK-10
OVCAR-4 = system: OVCAR-4
DU-145 = system: DU-145
RXF 393 = system: RXF 393
SNB-75 = system: SNB-75
M14 = system: M14
UACC-257 = system: UACC-257
MDA-N = system: MDA-N
A549 = system: A549
NCI-H522 = system: NCI-H522
K562 = system: K562
Malme-3M = system: Malme-3M
MCF7 = system: MCF7
UACC-62 = system: UACC-62
SK-MEL-2 = system: SK-MEL-2
UO-31 = system: UO-31
NCI-H226 = system: NCI-H226
MOLT-4 = system: MOLT-4
CCRF-CEM = system: CCRF-CEM
NCI-H23 = system: NCI-H23
NCI-H460 = system: NCI-H460
COLO 205 = system: COLO 205
BT-549 = system: BT-549
SF-539 = system: SF-539
SNB-19 = system: SNB-19

C[C@H]1[C@H](C)CC[C@]2(C(=O)OC3OC(CO)C(O)C(O)C3O)CC[C@]3(C)C(=CC[C@@H]4[C@@]5(C)C[C@@H](O)[C@@H]6OC(=O)c7cc(O)c(O)c(O)c7-c7c(cc(O)c(O)c7O)C(=O)OC[C@]6(CO)[C@@H]5CC[C@]43C)[C@H]12 (some centres not stated)
GI50 (Hs-578T): > 100 µM (inactive)
GI50 (U-251): 16.4 µM (inactive)
GI50 (LOX IMVI): 12.6 µM (inactive)
GI50 (OVCAR-3): 35.2 µM (inactive)
GI50 (EKVX): 36.7 µM (inactive)
GI50 (A498): > 100 µM (inactive)
GI50 (CAKI-1): 17 µM (inactive)
GI50 (RPMI-8226): 66.7 µM (inactive)
GI50 (PC-3): > 62.4 µM (inactive)
GI50 (MDA-MB-231): 12.4 µM (inactive)
GI50 (SK-MEL-5): 39.8 µM (inactive)
GI50 (HT-29): 19.1 µM (inactive)
GI50 (SN12C): 30.5 µM (inactive)
GI50 (SK-MEL-28): > 100 µM (inactive)
GI50 (SF-295): 29.2 µM (inactive)
GI50 (HCT-15): 28.1 µM
GI50 (SF-268): > 83.4 µM (inactive)
GI50 (HCC 2998): 17.3 µM (inactive)
GI50 (ACHN): > 73.3 µM (inactive)
GI50 (MDA-MB-435): 17.8 µM (inactive)
GI50 (HOP-62): 30.9 µM (inactive)
GI50 (OVCAR-8): 29.6 µM (inactive)
GI50 (SK-OV-3): 31.7 µM (inactive)
GI50 (HL-60): 25.9 µM (inactive)
GI50 (HCT-116): 41.2 µM (inactive)
GI50 (IGROV-1): > 86.3 µM (inactive)
GI50 (786-0): 14 µM (inactive)
GI50 (SR): 17.3 µM (inactive)
GI50 (SW-620): 27.4 µM (inactive)
GI50 (HOP-92): 63.1 µM (inactive)
GI50 (KM12): 24.2 µM (inactive)
GI50 (NCI/ADR-RES): > 62.4 µM (inactive)
GI50 (T47D): 42.7 µM (inactive)
GI50 (OVCAR-5): > 67.9 µM (inactive)
GI50 (TK-10): > 100 µM (inactive)
GI50 (OVCAR-4): 14.7 µM (inactive)
GI50 (DU-145): > 100 µM (inactive)
GI50 (RXF 393): > 91.4 µM (inactive)
GI50 (SNB-75): > 88.5 µM (inactive)
GI50 (M14): 97.9 µM (inactive)
GI50 (UACC-257): > 78.3 µM (inactive)
GI50 (MDA-N): 21.5 µM (inactive)
GI50 (A549): 78 µM (inactive)
GI50 (NCI-H522): 13.6 µM (inactive)
GI50 (K562): 45.7 µM (inactive)
GI50 (Malme-3M): > 100 µM (inactive)
GI50 (MCF7): 7.1 µM (inactive)
GI50 (UACC-62): 70.6 µM (inactive)
GI50 (SK-MEL-2): > 65 µM (inactive)
GI50 (UO-31): 56.9 µM (inactive)
GI50 (NCI-H226): 67.8 µM (inactive)
GI50 (MOLT-4): 17.7 µM (inactive)
GI50 (CCRF-CEM): 20.8 µM (inactive)
GI50 (NCI-H23): 46.8 µM (inactive)
GI50 (NCI-H460): 23.7 µM (inactive)
GI50 (COLO 205): 41.7 µM (inactive)
GI50 (BT-549): > 100 µM (inactive)
GI50 (SF-539): > 100 µM (inactive)
GI50 (SNB-19): 26.5 µM (inactive)

C=C1C(=O)OC2C1C(OC(=O)/C(C)=C/C)CC(O)(CCl)C1C(O)C3OC3(C)C21O (configuration not stated)
GI50 (Hs-578T): > 50 µM (inactive)
GI50 (U-251): > 50 µM (inactive)
GI50 (LOX IMVI): 18.9 µM (inactive)
GI50 (OVCAR-3): 27.5 µM (inactive)
GI50 (EKVX): > 50 µM (inactive)
GI50 (A498): > 50 µM (inactive)
GI50 (CAKI-1): 13.2 µM (inactive)
GI50 (RPMI-8226): 16.1 µM (inactive)
GI50 (PC-3): > 50 µM (inactive)
GI50 (MDA-MB-231): > 50 µM (inactive)
GI50 (SK-MEL-5): 28.2 µM (inactive)
GI50 (HT-29): 36.9 µM (inactive)
GI50 (SN12C): > 50 µM (inactive)
GI50 (SK-MEL-28): > 50 µM (inactive)
GI50 (SF-295): > 50 µM (inactive)
GI50 (HCT-15): 17.1 µM
GI50 (SF-268): > 50 µM (inactive)
GI50 (HCC 2998): > 50 µM (inactive)
GI50 (ACHN): 19.9 µM (inactive)
GI50 (MDA-MB-435): 48.5 µM (inactive)
GI50 (HOP-62): > 50 µM (inactive)
GI50 (OVCAR-8): 13.2 µM (inactive)
GI50 (SK-OV-3): > 50 µM (inactive)
GI50 (HL-60): 8.79 µM (inactive)
GI50 (HCT-116): 10.8 µM (inactive)
GI50 (IGROV-1): > 50 µM (inactive)
GI50 (786-0): 15.9 µM (inactive)
GI50 (SR): 17 µM (inactive)
GI50 (SW-620): 13.4 µM (inactive)
GI50 (HOP-92): 24.9 µM (inactive)
GI50 (KM12): > 50 µM (inactive)
GI50 (NCI/ADR-RES): > 50 µM (inactive)
GI50 (T47D): 23.8 µM (inactive)
GI50 (OVCAR-5): > 50 µM (inactive)
GI50 (TK-10): 40.1 µM (inactive)
GI50 (OVCAR-4): > 50 µM (inactive)
GI50 (DU-145): > 50 µM (inactive)
GI50 (RXF 393): 9.77 µM (inactive)
GI50 (SNB-75): > 50 µM (inactive)
GI50 (M14): 23.3 µM (inactive)
GI50 (UACC-257): > 50 µM (inactive)
GI50 (MDA-N): 26.6 µM (inactive)
GI50 (A549): > 50 µM (inactive)
GI50 (NCI-H522): 0.7 µM (active)
GI50 (K562): 18 µM (inactive)
GI50 (Malme-3M): 0.735 µM (active)
GI50 (MCF7): 18.2 µM (inactive)
GI50 (UACC-62): 34.6 µM (inactive)
GI50 (SK-MEL-2): > 50 µM (inactive)
GI50 (NCI-H226): > 50 µM (inactive)
GI50 (MOLT-4): 13.6 µM (inactive)
GI50 (CCRF-CEM): 12.4 µM (inactive)
GI50 (NCI-H23): 34.5 µM (inactive)
GI50 (NCI-H460): > 50 µM (inactive)
GI50 (COLO 205): 13.3 µM (inactive)
GI50 (BT-549): 17.4 µM (inactive)
GI50 (SF-539): > 50 µM (inactive)
GI50 (SNB-19): > 50 µM (inactive)
